We go through 36 molecules from patent US20070053834A1, “Radioligands for the TRP-M8 receptor and methods therewith” (priority 2003, published 2007).

In general, EC50 refers to the concentration giving half of the maximal effect.

T1 sequence (Q7Z2W7 whole entry): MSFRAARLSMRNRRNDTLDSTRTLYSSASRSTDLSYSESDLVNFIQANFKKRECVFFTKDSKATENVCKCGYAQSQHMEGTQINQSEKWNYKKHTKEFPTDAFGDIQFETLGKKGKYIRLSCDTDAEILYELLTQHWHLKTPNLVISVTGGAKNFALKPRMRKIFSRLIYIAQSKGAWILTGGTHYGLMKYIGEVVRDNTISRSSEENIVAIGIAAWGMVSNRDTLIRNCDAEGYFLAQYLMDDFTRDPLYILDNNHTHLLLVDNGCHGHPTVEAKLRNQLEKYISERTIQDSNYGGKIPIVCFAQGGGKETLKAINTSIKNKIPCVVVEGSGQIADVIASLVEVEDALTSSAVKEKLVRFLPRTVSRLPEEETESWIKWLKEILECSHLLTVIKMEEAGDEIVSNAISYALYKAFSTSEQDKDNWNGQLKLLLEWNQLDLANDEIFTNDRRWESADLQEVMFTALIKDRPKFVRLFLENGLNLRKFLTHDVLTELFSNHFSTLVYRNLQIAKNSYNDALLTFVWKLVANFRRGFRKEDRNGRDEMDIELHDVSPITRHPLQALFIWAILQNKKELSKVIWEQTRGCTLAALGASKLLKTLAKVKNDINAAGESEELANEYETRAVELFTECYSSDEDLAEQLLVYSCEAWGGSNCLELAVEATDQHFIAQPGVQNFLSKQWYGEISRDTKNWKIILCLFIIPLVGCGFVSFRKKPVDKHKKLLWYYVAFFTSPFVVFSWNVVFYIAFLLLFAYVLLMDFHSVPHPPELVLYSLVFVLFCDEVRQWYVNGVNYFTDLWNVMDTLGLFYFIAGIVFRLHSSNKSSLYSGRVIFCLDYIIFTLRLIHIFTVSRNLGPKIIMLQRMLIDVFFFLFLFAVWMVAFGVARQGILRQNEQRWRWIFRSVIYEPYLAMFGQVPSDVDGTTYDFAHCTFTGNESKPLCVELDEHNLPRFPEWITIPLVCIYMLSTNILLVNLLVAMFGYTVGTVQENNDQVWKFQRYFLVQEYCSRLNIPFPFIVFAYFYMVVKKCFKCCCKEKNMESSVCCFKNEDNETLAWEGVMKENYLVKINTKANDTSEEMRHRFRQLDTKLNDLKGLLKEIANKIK

One experiment has as its target T1, TRP-M8 receptor (Homo sapiens, UniProt Q7Z2W7). The experiment in a line: Cold sensation threshold on tongue (filter paper test). As to conditions: filter paper 1 × 1 cm impregnated with compound, on tongue, 30 sec; presence or absence of cooling. Also on record: The endogenous TRP-M8 receptor is a physiological receptor designed to detect temperature changes; from tissue; host or cells: tongue (sensory nerve endings), in vivo. In kind it is in vivo. The source says:
In Vivo Assays for TRP-M8 Activation. The endogenous TRP-M8 receptor is a physiological receptor designed to detect temperature changes in its environment and to transmit this signal to the central nervous system so that appropriate regulatory responses can be initiated (e.g. vasoconstriction to reduce heat loss, putting on warmer clothing, avoiding the cold environment).
The TRP-M8 receptor on cold sensory nerve endings and on malignant cells, for example in the prostate, are biochemically identical proteins. Thus, the potency of a molecule to elicit cold sensations, for example on the tongue or skin, was used as surrogate index of the binding affinity of the molecule for the TRP-M8 receptor. A number of potent “N-radiohaloaryl-carboxamides” were synthesized and tested for use as precursors of the inventive compounds and the results are shown in Table 1.
As to `CC1CCC(C(C)C)C(C(=O)Nc2ccc(F)cc2)C1` (stereo not shown) [N-(4′-fluorophenyl)-2-isopropyl-5-methylcyclohexanecarboxamide], the “Cold Sensation Threshold on Tongue” value came to 0.5 µg.
On the same count and under the same terms, the result for `CCC1(C(=O)Nc2ccc(OC)cc2)CCCCCC1C` (stereo not shown) [N-(4′-methoxyphenyl)-1-ethyl-2-methylcycloheptanecarboxamide] reads 6 µg; that for `COc1ccc(NC(=O)C(C)(C(C)C)C(C)C)cc1` [N-(4′-methoxyphenyl)-2-isopropyl-2,3-dimethylbutyramide], 0.5 µg.
As for `Cc1ccc(NC(=O)C(C)(C(C)C)C(C)C)c(C)c1` [N-(2′,4′-dimethylphenyl)-2-isopropyl-2,3-dimethylbutyramide], the “Cold Sensation Threshold on Tongue” value was 1 µg.
Same read-out and setting: the result for `CC(=O)c1ccc(NC(=O)C2CC(C)CCC2C(C)C)cc1` (stereo not shown) [N-(4′-acetylphenyl)-2-isopropyl-5-methylcyclohexanecarboxamide] reads 2 µg.
Still for that read-out and setting: the value for `COc1ccc(NC(=O)C2(C(C)C)CCCCCC2)c(C)c1` [N-(4′-methoxy-2′-methylphenyl)-1-isopropylcycloheptanecarboxamide] was 0.2 µg; that for `Cc1ccc(NC(=O)C2(C(C)C)CCCCCC2)cc1O` [N-(3′-hydroxy-4′-methylphenyl)-1-isopropylcycloheptanecarboxamide] was 1 µg.
Still for that read-out and setting: the value for `Cc1ccc(NC(=O)C2CC(C)CCC2C(C)C)c(C)c1` (stereo not shown) [N-(2′,4′-dimethylphenyl)-2-isopropyl-5-methylcyclohexanecarboxamide] was 0.1 µg; that for `COc1ccc(NC(=O)C2(C(C)C)CCCCCC2)cc1OC` [N-(3′,4′-dimethoxyphenyl)-1-isopropylcycloheptanecarboxamide] was 5 µg.
Consider `CC1CCC(C(C)C)C(C(=O)Nc2ccccc2O)C1` (stereo not shown) [N-(2′-hydroxyphenyl)-2-isopropyl-5-methylcyclohexanecarboxamide], for which the “Cold Sensation Threshold on Tongue” value is 0.5 µg.
Regarding `CCOC(=O)c1ccc(NC(=O)C2CC(C)CCC2C(C)C)cc1` (stereo not shown) [N-(4′-ethoxycarbonylphenyl)-2-isopropyl-5-methylcyclohexanecarboxamide], the “Cold Sensation Threshold on Tongue” value turned out to be 5 µg.
Consider `COc1ccc(NC(=O)C2CC(C)CCC2C(C)C)cc1` (stereo not shown) [N-(4′-methoxyphenyl)-2-isopropyl-5-methylcyclohexanecarboxamide], for which the “Cold Sensation Threshold on Tongue” value turned out to be 0.1 µg.
Still for that read-out and setting: the result for `CC1CCC(C(C)C)C(C(=O)NCc2ccccc2)C1` (stereo not shown) [N-phenylmethyl-2-isopropyl-5-methylcyclohexanecarboxamide] reads 20 µg; that for `Cc1ccc(NC(=O)C(C)(C(C)C)C(C)C)cc1C` [N-(3′,4′-dimethylphenyl)-2-isopropyl-2,3-dimethylbutyramide], 3 µg.
Regarding `CC1CCC(C(C)C)C(C(=O)Nc2ccc(Cl)cc2)C1` (stereo not shown) [N-(4′-chlorophenyl)-2-isopropyl-5-methylcyclohexanecarboxamide], the “Cold Sensation Threshold on Tongue” value is 8 µg.
For `CC1CCC(C(C)C)C(C(=O)Nc2ccccc2)C1` (stereo not shown) [N-phenyl-2-isopropyl-5-methylcyclohexanecarboxamide], the “Cold Sensation Threshold on Tongue” value is 20 µg.
On to `COc1ccc(NC(=O)C(C)(CC(C)C)C(C)C)cc1` (stereo not shown) [N-(4′-methoxyphenyl)-2-isopropyl-2,4-dimethylpentanamide], for which the “Cold Sensation Threshold on Tongue” value is 2 µg.
As for `Cc1ccc(NC(=O)C2(C(C)C)CCCCCC2)cc1C` [N-(3′,4′-dimethylphenyl)-1-isopropylcycloheptanecarboxamide], the “Cold Sensation Threshold on Tongue” value came out at 15 µg.
For the molecule `CC1CCC(C(C)C)C(C(=O)Nc2ccc(O)cc2)C1` (stereo not shown) [N-(4′-hydroxyphenyl)-2-isopropyl-5-methylcyclohexanecarboxamide], the “Cold Sensation Threshold on Tongue” value came out at 1 µg.
Same read-out and setting: the result for `Cc1ccc(NC(=O)C2(C(C)C)CCCCCC2)c(C)c1` [N-(2′,4′-dimethylphenyl)-1-isopropylcycloheptanecarboxamide] reads 15 µg; that for `Cc1ccc(NC(=O)C2CC(C)CCC2C(C)C)cc1O` (stereo not shown) [N-(3′-hydroxy-4′-methylphenyl)-2-isopropyl-5-methylcyclohexanecarboxamide], 0.1 µg; that for `CC1CCC(C(C)C)C(C(=O)Nc2ccc([N+](=O)[O-])cc2)C1` (stereo not shown) [N-(4′-nitrophenyl)-2-isopropyl-5-methylcyclohexanecarboxamide], 0.3 µg.

The same experiment, now with this note: oral.
The molecule `CNC(=O)C1CC(C)CCC1C(C)C` (stereo not shown) [N-methyl p-menthane-3-carboxamide, reference compound] displayed an oral cooling threshold of 1.1 µg.
Molecule `CCNC(=O)C1CC(C)CCC1C(C)C` (stereo not shown) [N-ethyl p-menthane-3-carboxamide, reference compound] had an oral cooling threshold of 0.2 µg.

The target of a further experiment is T1, TRP-M8 receptor. Nature of the experiment: FLIPR calcium influx assay in HEK cells transfected with human TRP-M8. To be noted: HEK cells with human TRP-M8, Fura-2, 29 or 37° C. Also noted: expressed in transfected cells; host or cells: HEK (human embryonic kidney) cells, permanently transfected. In kind it is cell-based. The text has this:
(§1) Cooling Actions on Skin. […] In Vitro Assays for TRP-M8 Activation. […] Brit. J Pharmacol. 2004 Feb; 141(4):737-45], and by A. K. Vogt-Eisele, D. Bura, H. Hatt, and E. T. Wei. [N-Alkylcarboxamide Cooling Agents: Activities on Skin and Cells with TRPM8 and TRPA1 Receptors. Acta Dermato-Venereol. 85: 468, 2005.] The data here were collected for the applicant by Dr. Afrodite Lourbakos of Unilever Research and Development, the Netherlands, using similar transfection methods and a FLIPR assay system. For the patch-clamp studies, using measurements of intracellular voltage changes, some of the data reported here were collected by Dr. Matthias Bödding of the University of the Saarland, and by Dr. Angela Vogt-Eisele of the Ruhr University at Bochum, Germany. FLIPR assay Human embryonic kidney (HEK) cells were permanently trausfected with plasmids containging the cDNA coding for the gene for the human TRP-M8 receptor. These cells were then incubated with a calcium fluorescence indicator (Fura-2) and incubated at either 29 or 37° C. These cells were then distributed into a 96-well fluorescence-plate image reader with automated drug dilution and computerized software for dose-response analysis. Cacium ion influx into cells after stimulation with compounds was quantified in fluorescence units. Compounds were dissolved in DMSO by ultrasonication to a 0.1 M solution. 5 μl of this stock was added to 5 mg of cyclodextrin and 5 ml of 140 Na-Tyrode, to achieve various final test concentrations.
For `COc1ccc(NC(=O)C2CC(C)CCC2C(C)C)cc1F` (stereo not shown) [CPS-113, N-(3′-fluoro, 4′-methoxyphenyl)-2-isopropyl-5-methyl-cyclohexanecarboxamide], the EC50 was 1300 nM.
For `CC1CCC(C(C)C)C(C(=O)Nc2ccc(F)cc2)C1` (stereo not shown) [CPS-124, N-(4′-fluorophenyl)-2-isopropyl-5-methylcyclohexanecarboxamide], the EC50 was determined as 1300 nM.
Take `COc1ccc(NC(=O)C2CC(C)CCC2C(C)C)cc1` (stereo not shown) [CPS-112 (WS-12), N-(4′-methoxyphenyl)-2-isopropyl-5-methylcyclohexanecarboxamide]: the EC50 came to 600 nM.
Take `CC1CCC(C(C)C)C(C(=O)Nc2ccc(I)cc2)C1` (stereo not shown) [CPS-120]: the EC50 was 10000 nM.
Same read-out and setting: the result for `COc1cccc(NC(=O)C2CC(C)CCC2C(C)C)c1` (stereo not shown) [CPS-141] reads 6000 nM; that for `CC1CCC(C(C)C)C(C(=O)Nc2ccc([N+](=O)[O-])c(C(F)(F)F)c2)C1` (stereo not shown) [CPS-138], > 100000 nM; that for `CC1CCC(C(C)C)C(C(=O)Nc2ccc(S(=O)(=O)Nc3ncccn3)cc2)C1` (stereo not shown) [CPS-125, 2-Isopropyl-5-methyl-cyclohexanecarboxylic acid [4-(pyrimidin-2-ylsulfamoyl)-phenyl]-amide], 6000 nM.
For `CC1CCC(C(C)C)C(C(=O)Nc2ccc(OC(F)(F)F)cc2)C1` (stereo not shown) [CPS-127], the EC50 was > 100000 nM.
On to `CCOc1ccc(NC(=O)C2CC(C)CCC2C(C)C)cc1` (stereo not shown) [CPS-128], for which the EC50 came to 500 nM.
On to `CC1CCC(C(C)C)C(C(=O)Nc2ccc(Br)cc2)C1` (stereo not shown) [CPS-123], for which the EC50 worked out at 6000 nM.

For another experiment, the target named is T1, TRP-M8 receptor. The experiment in a line: Patch-clamp whole-cell recordings in TRP-M8 transfected HEK cells. In kind it is cell-based. As to conditions: whole-cell configuration, room temperature (20-23° C.). Also noted: expressed in transfected cells; host or cells: HEK (human embryonic kidney) cells, permanently transfected.
Source text: as §1
Patch-Clamp Electrophysiological Recordings. HEK cells were prepared as above. Membrane currents were recorded in the whole-cell configuration using an EPC-9 amplifier (HEKA Elektronik, Lambrecht, Germany) as described previously (Bödding et al. 2002). […] Extracellular solution contained (in mM): 145 NaCl, 2 CaCl2, 2.8 KCl, 2 MgCl2, 11 glucose, 10 HEPES, adjusted to pH 7.2 with NaOH. Drugs were applied in the bath solution by a custom-made local perfusion system. The series resistance was compensated for 80 % and ranged between 5 and 10 MΩ. Currents were filtered using an 8-pole Bessel filter at 2.9 kHz and digitised at 100 μs. Voltage ramps (−110 mV to 90 mV in 50 ms) were applied at 0.5 Hz from a holding potential of −10 mV using PULSE software (HEKA Electronics). Several parameters such as capacitance, series resistance and holding current were monitored simultaneously at a slower rate (2 Hz) using the X-Chart display (HEKA Electronics). A liquid junction potential of 10 mV was applied to all voltages. All experiments were carried out at room temperature (20-23° C.). Internal solutions were kept on ice to minimize hydrolysis of ATP.
`COc1ccc(NC(=O)C2CC(C)CCC2C(C)C)cc1F` (stereo not shown) [CPS-113, N-(3′-fluoro, 4′-methoxyphenyl)-2-isopropyl-5-methyl-cyclohexanecarboxamide] displayed a 50% effective concentration (EC50) of 1200 nM.
Take `CC1CCC(C(C)C)C(C(=O)N(C)C[C@H](O)c2cccc(O)c2)C1` (stereo partly shown) [CPS-195, 2-Isopropyl-5-methyl-cyclohexanecaboxylic acid [2-hydroxy-2-(3-hydroxy-phenyl)-ethyl]-methyl-amide]: the response was half-maximal at 100 nM (EC50).
For `CC1CCC(C(C)C)C(C(=O)Nc2ccc(F)cc2)C1` (stereo not shown) [CPS-124, N-(4′-fluorophenyl)-2-isopropyl-5-methylcyclohexanecarboxamide], the response was half-maximal at 1200 nM (EC50).
In turn, `COc1ccc(NC(=O)C2CC(C)CCC2C(C)C)cc1` (stereo not shown) [CPS-112 (WS-12), N-(4′-methoxyphenyl)-2-isopropyl-5-methylcyclohexanecarboxamide] showed an EC50 of 200 nM.
Turning to `CC1CCC(C(C)C)C(C(=O)Nc2ccc(S(=O)(=O)Nc3ncccn3)cc2)C1` (stereo not shown) [CPS-125, 2-Isopropyl-5-methyl-cyclohexanecarboxylic acid [4-(pyrimidin-2-ylsulfamoyl)-phenyl]-amide], the response was half-maximal at 3000 nM (EC50).
Take `COc1ccc(NC(=O)C2CC(C)CCC2C(C)C)c(I)c1` (stereo not shown) [CPS-129, N-(2′-iodo-4′methoxyphenyl)-2-isopropyl-5-methylcyclohexanecarboxamide]: a half-maximal effect (EC50) was put at 300 nM.
